Source: PMC4182434, “Characterization of Niphatenones that Inhibit Androgen Receptor N-Terminal Domain” (PLoS ONE, 2014)

What was measured:
AR AF-1 = biological target: T1, AR AF-1 (Homo sapiens, UniProt P10275); test: Click-chemistry fluorescein labelling, SDS-PAGE; format: binding; settings: covalent; […] protein, […] probe, on ice […] min
T1 construct: recombinant AF-1 region, residues 142-485
T1 sequence (P10275 143-486): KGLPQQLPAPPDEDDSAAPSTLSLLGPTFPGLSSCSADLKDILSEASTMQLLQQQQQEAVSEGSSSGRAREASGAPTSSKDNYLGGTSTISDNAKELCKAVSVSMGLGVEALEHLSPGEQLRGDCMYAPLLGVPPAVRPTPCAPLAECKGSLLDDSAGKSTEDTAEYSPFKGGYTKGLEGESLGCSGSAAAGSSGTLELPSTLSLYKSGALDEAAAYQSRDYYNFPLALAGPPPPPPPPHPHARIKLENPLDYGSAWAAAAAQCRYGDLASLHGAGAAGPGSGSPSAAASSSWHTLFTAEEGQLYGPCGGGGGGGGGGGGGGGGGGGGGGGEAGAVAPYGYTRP

[1] = biological target: T2, full-length AR (endogenous, LNCaP) (Homo sapiens, UniProt P10275, T878A); test: PB-luciferase reporter in LNCaP cells; format: cell-based; settings: R1881-induced, serum-free, […] h; antagonist, AF-1 directed; covalent
T2 construct: endogenous full-length AR of LNCaP cells
T2 sequence (P10275 1-920 T878A): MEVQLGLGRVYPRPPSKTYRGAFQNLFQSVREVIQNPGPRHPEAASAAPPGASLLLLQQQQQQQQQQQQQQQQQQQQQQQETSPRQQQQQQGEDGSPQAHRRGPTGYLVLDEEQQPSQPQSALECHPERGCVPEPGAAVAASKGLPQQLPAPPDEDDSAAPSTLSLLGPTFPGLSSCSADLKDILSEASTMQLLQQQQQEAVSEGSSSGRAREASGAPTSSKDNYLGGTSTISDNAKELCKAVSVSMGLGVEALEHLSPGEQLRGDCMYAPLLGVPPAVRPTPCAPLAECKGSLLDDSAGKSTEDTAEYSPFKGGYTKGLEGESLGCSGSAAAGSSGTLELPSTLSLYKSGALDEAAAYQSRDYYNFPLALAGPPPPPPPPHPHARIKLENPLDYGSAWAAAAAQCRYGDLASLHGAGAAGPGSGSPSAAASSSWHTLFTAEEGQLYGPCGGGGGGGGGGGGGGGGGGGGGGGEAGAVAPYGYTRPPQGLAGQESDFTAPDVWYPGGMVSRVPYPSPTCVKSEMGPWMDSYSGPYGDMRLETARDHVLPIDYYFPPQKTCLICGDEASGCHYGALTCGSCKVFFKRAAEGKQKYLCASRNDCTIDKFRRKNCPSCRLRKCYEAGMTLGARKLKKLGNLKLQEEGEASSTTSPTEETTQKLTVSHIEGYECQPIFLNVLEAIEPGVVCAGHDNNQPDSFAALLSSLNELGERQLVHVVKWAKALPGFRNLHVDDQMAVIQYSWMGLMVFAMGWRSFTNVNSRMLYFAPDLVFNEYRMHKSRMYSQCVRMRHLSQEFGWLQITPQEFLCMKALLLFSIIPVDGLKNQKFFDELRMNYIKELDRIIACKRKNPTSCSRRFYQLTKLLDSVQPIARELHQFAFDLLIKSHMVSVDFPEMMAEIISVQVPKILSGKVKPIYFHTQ

Structure (SMILES) | Click-chemistry fluorescein labelling, SDS-PAGE (AR AF-1) | IC50 [1]
C#CCOCC(O)COCCC/C=C/C(=O)CCCCCCCCCCCC (stereo not drawn) [compound 44, niphatenone B 44] | resulted in covalent binding to both AR AF-1 and GR AF-1 peptide | –
CCCCCCCCCCCCC(=O)/C=C/CCCOC[C@H](O)CO [(R)-niphatenone B] | – | 6.3 ± 0.5 µM
CCCCCCCCCCCCC(=O)/C=C/CCCOC[C@@H](O)CO [(S)-niphatenone B] | – | 5.7 ± 0.6 µM
